{"source": "BindingDB's records for doi:10.1016/S0960-894X(01)80688-0", "about": "(1994)", "key": {"[1]": {"test": "Inhibitory activity was determined against almonds Beta-glucosidase"}, "[2]": {"test": "Inhibitory activity was determined against bovine liver beta galactosidase"}, "[3]": {"test": "Inhibitory activity was determined against Escherichia coli beta galactosidase"}}}
{"smiles": "OCC1C(O)C(O)C2OC(Nc3ccccc3)=NC12", "note": "(stereo unspecified) [4-Hydroxymethyl-2-phenylamino-4,5,6,6a-tetrahydro-3aH-cyclopentaoxazole-5,6-diol]", "values": [{"measurement": "IC50", "setting": "[1]", "result": "> 300", "unit": "µM"}, {"measurement": "IC50", "setting": "[2]", "result": 3, "unit": "µM"}, {"measurement": "IC50", "setting": "[3]", "result": "> 300", "unit": "µM"}]}
{"smiles": "OCC1(O)C(O)C(O)C2N=C(Nc3ccccc3)OC21", "note": "(stereo unspecified) [6-Hydroxymethyl-2-phenylamino-4,5,6,6a-tetrahydro-3aH-cyclopentaoxazole-4,5,6-triol]", "values": [{"measurement": "IC50", "setting": "[1]", "result": "> 300", "unit": "µM"}, {"measurement": "IC50", "setting": "[2]", "result": 153, "unit": "µM"}, {"measurement": "IC50", "setting": "[3]", "result": "> 300", "unit": "µM"}]}
